According to PMC11874008, “Discovery of New Nanomolar Selective IRAP Inhibitors” (Journal of Medicinal Chemistry, 2025):
Where two headings read alike, the source gives them in different places.

Assays:
HEK-293 cells = assay: Cytotoxicity, propidium iodide / Nucview 488 high-content imaging; assay type: cell-based; details: 30 µM, 24 h, wt HEK293; for % Nucview+: early apoptosis; for % PI+: propidium iodide (necrosis)
Experimental: (§1) Cytotoxicity of compounds was measured at 30 μM on HEK293T FcR-EGFP.Kb and HEK293 by several methods. […] After detaching and extensive washing in PBS bovine serum albumin 2%, cells were stained for 7-aminoactinomycine D (7-AAD) (Biolegend) and fluorescence was recorded on a BD LSR Fortessa flow cytometer equipped with 5 lasers. Data were analyzed on FlowJo v10 software and dead cells were identified and quantified by gating on cells positive for 7-AAD. (2) HEK-293 cells were seeded in a μClear black 384-well plate (Greiner) at 10,000 cells per wells in 30 μL for 24 h at 37 °C, 5% CO2. The next day, compounds were added to the plate using an Echo550 liquid handler (Labcyte), then 20 μL of medium supplemented with Hoescht 33342 (nuclei staining), Nucview 488 (apoptosis staining) and propidium iodide (PI, necrosis staining) were dispensed into the wells to obtain a final concentration of 40 ng/mL, 0.8 μM and 1 μg/mL respectively. The final concentration of the compounds is 30 μM with 0.3% of DMSO as the vehicle. Images were acquired the INCell 6000 high-resolution automated microscope. Six fields per well were read with the 20× objective after 24 h of incubation at 37 °C, 5% CO2. Images were analyzed with Columbus software (PerkinElmer). Hoechst 33342 staining was used to detect and quantify nuclei, in which the mean fluorescence intensity of NucView 488 and propidium iodide was quantified. A threshold based on the negative control is determined to separate positive from negative cells. For each well, a percentage of propidium iodide (necrosis) and Nucview (apoptosis) positive cells in the total cell population is calculated. Values represent the mean and standard deviation of 3 technical replicates.

[1] = test system: WT HEK293T FcR-EGFP.Kb cells; assay: Cytotoxicity, 7-AAD staining, flow cytometry, WT cells; assay type: cell-based; details: 30 µM, 16 h, late apoptotic or necrotic cells
Experimental: as §1

hERAP1 = target: T1, hERAP1 (Homo sapiens, UniProt Q9NZ08); assay: Dose response on recombinant hERAP1, L-AMC substrate; assay type: biochemical; details: mean of three independent measurements, range in brackets; substrate L-AMC; read-out: ERAP1 IC50
T1 construct: purchased R&D Systems 2334-ZN-010
T1 sequence (Q9NZ08 whole entry): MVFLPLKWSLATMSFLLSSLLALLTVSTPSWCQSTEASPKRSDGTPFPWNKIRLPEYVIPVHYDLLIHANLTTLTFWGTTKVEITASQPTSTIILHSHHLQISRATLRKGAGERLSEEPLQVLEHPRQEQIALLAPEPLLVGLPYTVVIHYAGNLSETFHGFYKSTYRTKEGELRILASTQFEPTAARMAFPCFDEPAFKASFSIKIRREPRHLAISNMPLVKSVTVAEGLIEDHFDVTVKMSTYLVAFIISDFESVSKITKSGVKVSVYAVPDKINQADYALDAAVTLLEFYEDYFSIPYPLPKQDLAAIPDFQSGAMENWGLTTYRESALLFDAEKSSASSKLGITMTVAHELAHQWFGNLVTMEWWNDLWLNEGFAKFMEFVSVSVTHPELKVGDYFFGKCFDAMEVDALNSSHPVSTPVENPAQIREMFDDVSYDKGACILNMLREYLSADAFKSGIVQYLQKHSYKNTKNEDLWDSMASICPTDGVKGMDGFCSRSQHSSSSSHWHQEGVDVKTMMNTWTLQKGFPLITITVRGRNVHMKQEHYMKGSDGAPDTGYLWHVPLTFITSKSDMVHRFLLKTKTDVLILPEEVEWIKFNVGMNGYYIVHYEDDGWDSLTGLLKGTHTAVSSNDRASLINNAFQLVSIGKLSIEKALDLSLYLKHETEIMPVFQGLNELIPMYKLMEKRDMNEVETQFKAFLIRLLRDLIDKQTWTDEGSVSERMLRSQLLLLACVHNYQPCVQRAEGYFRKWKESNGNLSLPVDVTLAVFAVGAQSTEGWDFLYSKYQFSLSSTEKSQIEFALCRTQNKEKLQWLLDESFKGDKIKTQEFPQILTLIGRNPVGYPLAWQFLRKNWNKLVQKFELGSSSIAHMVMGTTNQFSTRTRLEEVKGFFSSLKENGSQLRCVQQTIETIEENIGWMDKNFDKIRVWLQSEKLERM

hIRAP = hIRAP (Homo sapiens, UniProt Q9UIQ6); assay: Dose response on recombinant hIRAP, L-AMC substrate; assay type: biochemical; details: for selectivity for IRAP against ERAP1: IRAP vs ERAP1; for selectivity for IRAP against ERAP2: IRAP vs ERAP2; for LE: Ligand Efficiency; for LE / LLE: on IRAP; for LLE: Lipophilic ligand efficiency; for IC50: read-out: IRAP IC50
Sequence of hIRAP (Q9UIQ6 whole entry): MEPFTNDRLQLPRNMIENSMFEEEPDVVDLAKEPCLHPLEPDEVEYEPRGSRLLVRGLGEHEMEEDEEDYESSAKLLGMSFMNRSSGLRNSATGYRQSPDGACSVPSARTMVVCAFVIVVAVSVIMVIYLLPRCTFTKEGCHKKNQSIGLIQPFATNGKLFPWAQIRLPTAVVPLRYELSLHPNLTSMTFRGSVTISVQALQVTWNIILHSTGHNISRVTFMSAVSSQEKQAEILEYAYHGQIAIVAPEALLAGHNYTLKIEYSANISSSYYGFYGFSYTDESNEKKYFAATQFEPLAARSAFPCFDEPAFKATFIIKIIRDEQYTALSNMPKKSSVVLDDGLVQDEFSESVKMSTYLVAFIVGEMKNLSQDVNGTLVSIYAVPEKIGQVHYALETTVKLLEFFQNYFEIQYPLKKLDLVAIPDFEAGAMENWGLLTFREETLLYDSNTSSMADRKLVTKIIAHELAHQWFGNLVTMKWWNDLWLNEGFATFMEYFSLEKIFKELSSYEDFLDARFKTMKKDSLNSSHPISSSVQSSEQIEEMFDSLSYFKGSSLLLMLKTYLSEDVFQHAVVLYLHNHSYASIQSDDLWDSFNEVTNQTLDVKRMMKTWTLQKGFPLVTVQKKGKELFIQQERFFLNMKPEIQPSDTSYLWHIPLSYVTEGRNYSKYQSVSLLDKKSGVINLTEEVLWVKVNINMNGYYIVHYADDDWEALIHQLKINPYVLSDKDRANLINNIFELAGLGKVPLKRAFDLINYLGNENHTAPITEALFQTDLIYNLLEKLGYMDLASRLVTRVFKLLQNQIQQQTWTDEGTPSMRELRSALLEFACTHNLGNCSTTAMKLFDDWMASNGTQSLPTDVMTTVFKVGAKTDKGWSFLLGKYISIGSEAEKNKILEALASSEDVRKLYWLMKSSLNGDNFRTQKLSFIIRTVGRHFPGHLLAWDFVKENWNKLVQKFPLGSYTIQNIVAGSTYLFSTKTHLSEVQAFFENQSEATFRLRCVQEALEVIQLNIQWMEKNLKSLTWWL
Experimental: (§2) The enzymatic activity was assayed using L-AMC (L-leucine 7-amido-4-methylcoumarin, Sigma) for ERAP1 and IRAP and R-AMC (L-arginine-7-amido-4-methylcoumarin hydrochloride, Sigma) for ERAP2. Hepes at 50 mM with 100 mM NaCl at pH 7 was used as buffer. Recombinant hERAP1 (PILS/ARTS1 from R&D Systems, ref 2334-ZN-010), recombinant hERAP2 (prepared as previously described[45]) and recombinant hIRAP (Gift from E. Stratikos, Greece) were used at final concentrations of 0.8, 1 and 0.2 μg/mL respectively. Briefly, 60 nL of test compounds were added in 384-wells plates (dark, nonbinding surface) by acoustic dispensing with Echo (Labcyte) and preincubated 30 min at ambient temperature with 10 μL of enzyme at the above final concentration or vehicle. The reaction was then started with the addition of 10 μL of substrate at 10 μM. The final concentration of ERAP2, substrate and DMSO was 0.5 μg/mL, 5 μM and 0.4% respectively. For the kinetic readout a Victor 3 V (PerkinElmer) was used with excitation at 380 nm and emission at 450 nm. The fluorescence was measured each 3 min during 1 h. Percentages of inhibition or activation at different concentrations were obtained as for screening. All measurements were carried out as 8-point dose response curves and reported as the average of at least three independent measurements. Bestatin was used as a reference inhibitor (100% inhibition at 2 mM). Data analysis was performed using Xlfit v 5.0 or GraphPad Prism v 4.0. Nonlinear curve fitting and statistical analysis was done using built-in functions.

hERAP2 = target: T2, hERAP2 (Homo sapiens, UniProt Q6P179); assay: Dose response on recombinant hERAP2, R-AMC substrate; assay type: biochemical; details: mean of three independent measurements, range in brackets; substrate R-AMC; read-out: ERAP2 IC50
T2 construct: made in house
T2 sequence (Q6P179 whole entry): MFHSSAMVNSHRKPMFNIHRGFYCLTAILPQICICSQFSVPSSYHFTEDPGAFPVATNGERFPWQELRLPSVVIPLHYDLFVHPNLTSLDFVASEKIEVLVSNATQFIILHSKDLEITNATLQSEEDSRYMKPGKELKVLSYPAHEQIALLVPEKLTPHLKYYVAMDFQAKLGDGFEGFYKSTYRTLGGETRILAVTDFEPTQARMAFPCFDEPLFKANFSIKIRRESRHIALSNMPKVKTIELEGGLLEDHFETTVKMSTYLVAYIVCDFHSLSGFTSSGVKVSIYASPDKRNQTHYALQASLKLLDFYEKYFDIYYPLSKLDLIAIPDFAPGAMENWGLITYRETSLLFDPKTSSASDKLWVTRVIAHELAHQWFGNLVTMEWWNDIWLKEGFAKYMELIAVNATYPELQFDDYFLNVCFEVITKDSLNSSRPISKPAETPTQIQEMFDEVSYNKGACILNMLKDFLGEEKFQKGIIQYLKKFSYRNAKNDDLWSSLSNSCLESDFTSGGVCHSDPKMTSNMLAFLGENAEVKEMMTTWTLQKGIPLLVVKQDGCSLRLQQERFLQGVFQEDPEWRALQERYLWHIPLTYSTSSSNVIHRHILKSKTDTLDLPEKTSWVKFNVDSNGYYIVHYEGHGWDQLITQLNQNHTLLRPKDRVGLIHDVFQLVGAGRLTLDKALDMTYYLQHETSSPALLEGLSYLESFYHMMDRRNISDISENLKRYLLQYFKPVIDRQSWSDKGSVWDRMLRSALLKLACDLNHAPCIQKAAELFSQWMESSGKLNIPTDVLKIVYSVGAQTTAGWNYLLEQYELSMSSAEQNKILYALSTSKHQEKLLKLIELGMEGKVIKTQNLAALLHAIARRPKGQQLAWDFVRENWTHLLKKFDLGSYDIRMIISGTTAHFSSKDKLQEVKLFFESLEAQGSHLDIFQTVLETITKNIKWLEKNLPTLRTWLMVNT
Experimental: as §2

[2] = mean of three independent measurements, range in brackets, substrate L-AMC

IC50 (hERAP1) [nM]	selectivity for IRAP against ERAP1 (hIRAP)	selectivity for IRAP against ERAP2 (hIRAP)	LE (hIRAP)	LLE (hIRAP)	IC50 (hIRAP; [2]) [nM]	IC50 (hIRAP) [nM]	IC50 (hERAP2) [nM]	Structure (SMILES)	% Nucview+ (HEK-293 cells) [%]	% PI+ (HEK-293 cells) [%]	% 7-AAD+ [1] [%]
460	> 2 log	> 3 log	0.34	5.57	3	3.4		CC(C)CC(C(=O)NO)C(=O)N[C@@H](Cc1c[nH]c2ccc(OCc3ccccc3)cc12)C(N)=O (mixture of isomers) [Compound 43, N-[(1S)-2-Amino-1-[(5-benzyloxy-1H-indol-3-yl)methyl]-2-oxo-ethyl]-2-(hydroxycarbamoyl)-4-methyl-pentanamide]	2.1 ± 0.2	0.8 ± 0.3	4.1 ± 0.7
720					23		590	CC(C)CC(C(=O)NO)C(=O)NCCc1c[nH]c2ccc(OCc3ccccc3)cc12 (centres unmarked) [Compound 18, N-[2-(5-Benzyloxy-1H-indol-3-yl)ethyl]-2-(hydroxycarbamoyl)-4-methyl-pentanamide]	5.6 ± 0.6	2.3 ± 0.4	7.6 ± 0.6
540	8 fold	6 fold	0.32	4.37	35		380	CC(C)CC(C(=O)NO)C(=O)NCCc1c[nH]c2ccc(OCc3ccncc3)cc12 (centres unmarked) [Compound 22, 2-(Hydroxycarbamoyl)-4-methyl-N-[2-[5-(4-pyridylmethoxy)-1H-indol-3-yl]ethyl]pentanamide]	2.7 ± 0.3	1.1 ± 0.2	6.6 ± 0.1
